Legend:
[1] = molecular target: T1, NDPK1 recombinant protein (AtNDPK1) (Arabidopsis thaliana, UniProt P39207); assay: coupled pyruvate kinase-lactate dehydrogenase assay, NADH at […] nm; format: biochemical; conditions: inhibitor; 500 uM cGMP; ATP and 4 mM TDP as substrates
T1 construct: gene NDK1; recombinant protein from commercial supplier (MyBioSource)
T1 sequence (P39207 1-149): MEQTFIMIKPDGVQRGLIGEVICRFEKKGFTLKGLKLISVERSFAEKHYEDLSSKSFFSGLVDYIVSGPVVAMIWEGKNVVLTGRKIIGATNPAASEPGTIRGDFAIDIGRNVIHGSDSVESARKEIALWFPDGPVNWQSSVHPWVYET

[2] = molecular target: T1, NDPK1 recombinant protein (AtNDPK1); assay: as above; format: biochemical; conditions: phosphate acceptor, ATP as donor; 4 mM TDP

SMILES | specific activity, % of control at 500 uM [1] | coupled pyruvate kinase-lactate dehydrogenase assay, NADH at 340 nm [2]
Nc1nc2c(ncn2[C@@H]2O[C@@H]3COP(=O)(O)O[C@H]3[C@H]2O)c(=O)[nH]1 [3',5'-cGMP] | 51% | 
Cc1cn([C@H]2C[C@H](O)[C@@H](COP(=O)(O)OP(=O)(O)O)O2)c(=O)[nH]c1=O [TDP] |  | TDP was used as a NDPK1 substrate and phosphate group acceptor

Reference: publication PMC5853561, “Affinity purification with metabolomic and proteomic analysis unravels diverse roles of nucleoside diphosphate kinases” (Journal of Experimental Botany, 2017)
